≈ marks a conversion by molar mass, not a printed value.
What was measured:
水溶性値 (water solubility) = type: physicochemical; settings: for solubility: water, M (mol dm-3)
[1] = Cytotoxicity in cultured  (B16); type: cell-based, human; settings: human, B16 cells
[2] = system: B-16 human melanoma cells (B16) [B−16ヒト黒色癌細胞(B16)]; experiment: Cytotoxicity in cultured  (B16); type: cell-based; settings: 50% or more not killed even after 3 days at 1.77×10^-2 M
B16 cells [B16細胞] = experiment: Permeability (浸透性) into B16 cells, residual intracellular boron by ICP-MS; type: cell-based, human; settings: 24 h
[3] = system: TIG-1-20 human infant germ cells (T20) [TIG−1−20ヒト乳児胚芽細胞(T20)]; experiment: Permeability (浸透性) into T20 cells, residual intracellular boron by ICP-MS; type: cell-based; settings: boron compound 0.4 mmol, 37°C, 24 h
[4] = permeability B16 versus T20, 37°C

water solubility value relative to BPA (水溶性値 (water solubility); ratio to BPA) [fold]	solubility (水溶性値 (water solubility)) [mM]	SMILES	cytotoxicity at 72 h, 17700 µM ([1]; compound at 1.77×10^-2 M, even after 3 days, read-out: cells killed) [%]	IC50 (in words) [2]	permeability into B16 cells (in words, versus BPA) (B16 cells [B16細胞]; boron compound 0.4 mmol, 37°C)	selectivity for B16 over T20 (B16 cells [B16細胞]; [4]) [fold]	permeability into T20 cells (in words, versus BPA) [3]	IC50 at 72 h ([1]; similar culture conditions (compound (1): after 3 days)) [mM]	selectivity for B16 over T20 (in words) (B16 cells [B16細胞]; [4])
~100	660 (≈ 186 mg/mL)	NC(Cc1ccc(B(O)O)cc1)C(=O)NC(CO)CO (stereo not shown) [化合物(1)]	< 50	高い	BPAよりわずかに高い浸透性	≥ 5	BPAよりはるかに低かった		
	7.66 (≈ 1.6 mg/mL)	NC(Cc1ccc(B(O)O)cc1)C(=O)O (racemic) [BPA, p−ボロノフェニルアラニン, reference compound]						8.55	殆ど選択性がない
